From US11795165B2, “Tetrahydro-benzoazepine glycosidase inhibitors” (Asceneuron SA, priority 2018, dated 2023) come the findings set out here.

The assay has as its target His-Tagged hOGA (human O-GlcNAcase) (Homo sapiens (Human), UniProt O60502). Put plainly: Human O-GlcNAcase enzyme inhibition assay (OGA enzyme inhibition assay). The settings on record: His-Tagged hOGA 20 nM, FL-GlcNAc 10 μM, 60 min at room temperature, pH 6.5; activity classes. Type of assay: biochemical. How it is done: Example B01: Human O-GlcNAcase Enzyme Inhibition Assay
5 μl of the appropriate concentration of a solution of inhibitor in McIlvaine's Buffer (pH 6.5) in 2% DMSO (for a dose response curve calculation) is added into each well of a 384-well plate (Greiner, 781900). Then, 20 nM of His-Tagged hOGA and 10 μM of FL-GlcNAc (Fluorescein mono-beta-D-(2-deoxy-2-N-acetyl) glucopyranoside; Marker Gene Technologies Inc, M1485) were added to the 384-well plate for a final volume of 20 μl. After incubation for 60 min at room temperature, the reaction was terminated by the addition of 10 μL of stop buffer (200 mM glycine, pH 10.75). The level of fluorescence (Δexc 485 nm; (Δemm 520 nm) was read on a PHERAstar machine. The amount of fluorescence measured was plotted against the concentration of inhibitor to produce a sigmoidal dose response curve to calculate an IC50. All individual data was corrected by subtraction of the background (Thiamet 3 uM=100% inhibition) whilst 0.5% DMSO was considered as the control value (no inhibition).

Structures are written as SMILES.

Chain of His-Tagged hOGA (human O-GlcNAcase) (O60502 whole entry): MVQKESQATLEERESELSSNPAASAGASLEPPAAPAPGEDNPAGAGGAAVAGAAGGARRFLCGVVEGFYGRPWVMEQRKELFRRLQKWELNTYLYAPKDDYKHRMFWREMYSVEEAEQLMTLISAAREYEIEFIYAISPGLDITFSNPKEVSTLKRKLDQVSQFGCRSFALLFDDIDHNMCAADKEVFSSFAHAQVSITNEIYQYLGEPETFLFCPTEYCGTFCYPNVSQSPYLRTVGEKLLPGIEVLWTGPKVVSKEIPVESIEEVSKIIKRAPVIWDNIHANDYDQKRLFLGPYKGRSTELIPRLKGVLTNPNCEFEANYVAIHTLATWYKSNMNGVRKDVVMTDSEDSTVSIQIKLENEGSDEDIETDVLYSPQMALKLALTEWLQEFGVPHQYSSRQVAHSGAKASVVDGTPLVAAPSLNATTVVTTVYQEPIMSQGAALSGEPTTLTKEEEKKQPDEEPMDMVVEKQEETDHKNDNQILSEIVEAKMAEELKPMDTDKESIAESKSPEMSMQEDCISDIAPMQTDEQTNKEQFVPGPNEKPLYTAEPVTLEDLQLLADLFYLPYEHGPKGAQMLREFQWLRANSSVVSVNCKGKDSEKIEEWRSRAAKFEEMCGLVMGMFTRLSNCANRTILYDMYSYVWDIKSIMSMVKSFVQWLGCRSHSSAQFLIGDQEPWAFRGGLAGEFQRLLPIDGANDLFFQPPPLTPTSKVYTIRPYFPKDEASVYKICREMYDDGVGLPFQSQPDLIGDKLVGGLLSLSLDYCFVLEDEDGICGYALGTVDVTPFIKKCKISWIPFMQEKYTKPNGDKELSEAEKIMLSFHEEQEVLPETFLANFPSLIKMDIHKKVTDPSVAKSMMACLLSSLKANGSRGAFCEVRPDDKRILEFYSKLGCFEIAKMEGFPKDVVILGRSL

In turn, `CSc1ccc2c(c1)CCN(C(C)c1ccc3scnc3c1)CC2` (racemic) [Example 111] returned an IC50 of under 0.05 µM.

Compound `CSc1ccc2c(c1)CCCN(C(C)c1ccc3scnc3c1)C2` (racemic) [Example 112] came in with an IC50 of 0.2 to 1 µM.

In turn, `COc1ccc2c(c1)CCN(C(C)c1ccc3scnc3c1)CC2O` (racemic) [Example 116] came in with a half-inhibitory concentration (IC50) of 0.05 to 0.2 µM.

`CC(c1ccc2scnc2c1)N1CCc2cc(N)cnc2CC1` (racemic) [Example 117] had an IC50 of under 0.05 µM.

As to `CC(c1ccc2scnc2c1)N1CCc2cc(NS(=O)(=O)C3CC3)cnc2CC1` (racemic) [Example 120], the IC50 was under 0.05 µM.

`CC(c1ccc2scnc2c1)N1CCCc2ncc(NS(=O)(=O)C3CC3)cc2C1` (racemic) [Example 121] had an IC50 of 0.2 to 1 µM.

For the compound `CC(=O)Nc1ncc(CN2CCCc3ccccc3C2C)s1` (racemic) [Example 122], the IC50 was in the range of 1 to 10 µM.

Compound `COc1ccc2c(c1)CCN(C(C)c1ccc3nsnc3c1)CC2` (single isomer, unassigned) [Example 3] displayed an IC50 of 1 to 10 µM.

As for `COc1ccc2c(c1)CCN(C(C)c1ccc3scnc3c1)CC2` (single isomer, unassigned) [Example 6], the IC50 fell in the range of 0.2 to 1 µM.

Compound `COc1ccc2c(c1)CCN(C(C)c1ccc3c(c1)OCC3)CC2` (single isomer, unassigned) [Example 9] yielded an IC50 of 0.05 to 0.2 µM.

`CC(c1ccc2scnc2c1)N1CCc2ccccc2CC1` (single isomer, unassigned) [Example 21] gave an IC50 of under 0.05 µM.

Take `CC(c1ccc2scnc2c1)N1CCc2ccccc2CC1` (single isomer, unassigned) [Example 22]: the IC50 lay within 0.2 to 1 µM.

Consider `CC(C)COc1ccc2c(c1)CCN(C(C)c1ccc3scnc3c1)CC2` (single isomer, unassigned) [Example 27, (R)-5-(1-(7-isobutoxy-1,2,4,5-tetrahydro-3H-benzo[d]azepin-3-yl)ethyl)benzo[d]thiazole or (S)-5-(1-(7-isobutoxy-1,2,4,5-tetrahydro-3H-benzo[d]azepin-3-yl)ethyl)benzo[d]thiazole], for which the IC50 was 0.2 to 1 µM.

Regarding `CC(c1ccc2scnc2c1)N1CCc2ccc(S(C)(=N)=O)cc2CC1` (single isomer, unassigned) [Example 115], the IC50 lay in the range of 1 to 10 µM.

Turning to `CSc1ccc2c(c1)CCN(C(C)c1ccc3scnc3c1)CC2` (single isomer, unassigned) [Example 118], the 50% inhibitory concentration (IC50) is 1 to 10 µM.

`CSc1ccc2c(c1)CCN(C(C)c1ccc3scnc3c1)CC2` (single isomer, unassigned) [Example 119] yielded an IC50 of under 0.05 µM.

`COc1ccc2c(c1)CCN(C(C)c1ccc3nsnc3c1)CC2` (centres unmarked) [Example 1, 5-(1-(7-methoxy-1,2,4,5-tetrahydro-3H-benzo[d]azepin-3-yl)ethyl)benzo[c][1,2,5]thiadiazole] yielded an IC50 of under 0.05 µM.

Take `COc1ccc2c(c1)CCN([C@@H](C)c1ccc3scnc3c1)CC2` [Example 5, (S)-5-(1-(7-methoxy-1,2,4,5-tetrahydro-3H-benzo[d]azepin-3-yl)ethyl)benzo[d]thiazole]: the IC50 is under 0.05 µM.

Turning to `COc1ccc2c(c1)CCN(C(C)c1ccc3c(c1)OCC3)CC2` (centres unmarked) [Example 7, 3-(1-(2,3-dihydrobenzofuran-6-yl)ethyl)-7-methoxy-2,3,4,5-tetrahydro-1H-benzo[d]azepine], the IC50 is under 0.05 µM.

Regarding `CC(c1ccc2scnc2c1)N1CCc2ccc(S(C)(=N)=O)cc2CC1` (centres unmarked) [Example 113], the IC50 is under 0.05 µM.

By IC50 is commonly meant the concentration that gives 50% inhibition.
